Reference: ChEMBL document CHEMBL4373746, “Structural attributes influencing unbound tissue distribution” (Eur J Med Chem, 2020)

Experiments:
[1] = Unbound tissue partition coefficient, ratio of drug level in heart to plasma in Wistar Han rat at 1 to 2 mg/kg, iv infused for 10 to 20 hrs by LC-MS/MS analysis; settings: heart/plasma
[2] = Fraction unbound in Wistar Han rat white adipose tissue at 2 uM incubated for 6 hrs by equilibrium dialysis method
[3] = Unbound tissue partition coefficient, ratio of drug level in liver to plasma in Wistar Han rat at 1 to 2 mg/kg, iv infused for 10 to 20 hrs by LC-MS/MS analysis; settings: liver/plasma
[4] = Drug concentration in total skeletal muscle in Wistar Han rat at 1 to 2 mg/kg, iv infused for 10 to 20 hrs by LC-MS/MS analysis; settings: in vivo
[5] = Drug concentration in total white adipose tissue in Wistar Han rat at 1 to 2 mg/kg, iv infused for 10 to 20 hrs by LC-MS/MS analysis; settings: in vivo
[6] = Total plasma concentration in Wistar Han rat at 1 to 2 mg/kg, iv infused for 10 to 20 hrs by LC-MS/MS analysis; settings: in vivo
[7] = Fraction unbound in Wistar Han rat brain at 2 uM incubated for 6 hrs by equilibrium dialysis method
[8] = Fraction unbound in Wistar Han rat liver at 2 uM incubated for 6 hrs by equilibrium dialysis method
[9] = Unbound tissue partition coefficient, ratio of drug level in adipose to plasma in Wistar Han rat at 1 to 2 mg/kg, iv infused for 10 to 20 hrs by LC-MS/MS analysis; settings: adipose/plasma
[10] = Drug concentration in total brain in Wistar Han rat at 1 to 2 mg/kg, iv infused for 10 to 20 hrs by LC-MS/MS analysis; settings: in vivo
[11] = Fraction unbound in Wistar Han rat plasma at 2 uM incubated for 6 hrs by equilibrium dialysis method
[12] = Fraction unbound in Wistar Han rat skeletal muscle at 2 uM incubated for 6 hrs by equilibrium dialysis method
[13] = Drug concentration in total heart in Wistar Han rat at 1 to 2 mg/kg, iv infused for 10 to 20 hrs by LC-MS/MS analysis; settings: in vivo
[14] = Drug concentration in total liver in Wistar Han rat at 1 to 2 mg/kg, iv infused for 10 to 20 hrs by LC-MS/MS analysis; settings: in vivo
[15] = Unbound tissue partition coefficient, ratio of drug level in skeletal muscle to plasma in Wistar Han rat at 1 to 2 mg/kg, iv infused for 10 to 20 hrs by LC-MS/MS analysis; settings: skeletal muscle/plasma
[16] = Fraction unbound in Wistar Han rat heart at 2 uM incubated for 6 hrs by equilibrium dialysis method
[17] = Unbound tissue partition coefficient, ratio of drug level in brain to plasma in Wistar Han rat at 1 to 2 mg/kg, iv infused for 10 to 20 hrs by LC-MS/MS analysis; settings: brain/plasma
[18] = Apparent permeability of the compound across dog RRCK cells by MDCK-LE assay

| SMILES | Kp uu [1] | fraction unbound at 6 h, 2 µM [2] | Kp uu [3] | Ct [4] [ng/mL] | Ct [5] [ng/mL] | Cp [6] [ng/mL] | fraction unbound at 6 h, 2 µM [7] | fraction unbound at 6 h, 2 µM [8] | Kp uu [9] | Ct [10] [ng/mL] | fraction unbound at 6 h, 2 µM [11] | fraction unbound at 6 h, 2 µM [12] | Ct [13] [ng/mL] | Ct [14] [ng/mL] | Kp uu [15] | fraction unbound at 6 h, 2 µM [16] | Kp uu [17] | Papp [18] [×10⁻⁶ cm/s] |
| --- | --- | --- | --- | --- | --- | --- | --- | --- | --- | --- | --- | --- | --- | --- | --- | --- | --- | --- |
| COc1cc(/C=C2\CCCN([C@@H](C)c3ccc(F)cc3)C2=O)ccc1-n1cnc(C)c1 | 0.77 | 0.00185 | 7 | 180 | 1800 | 210 | 0.00429 | 0.00939 | 2.3 | 150 | 0.00785 | 0.0012 | 360 | 1200 | 0.13 | 0.00363 | 0.4 | 16 |
| Oc1noc2cc(Cl)c(Cl)cc12 | 10 | 0.714 | 0.22 | 17 | 29 | 500 | 0.103 | 0.105 | 9.7 | 24 | 0.00445 | 0.153 | 180 | 4.7 | 1.2 | 0.13 | 1.1 | 29 |
| COc1ccc(-c2cc3c(C(=O)O)n[nH]c3cc2Cl)cc1 | 1.8 | 0.334 | 6.5 | 1.9 | 1 | 96 | 0.0135 | 0.0193 | 1.2 | 0.6 | 0.00439 | 0.0398 | 29 | 140 | 0.15 | 0.0256 | 0.017 | 8.8 |
| CC(C)(O)CS(=O)(=O)c1ccc2c(c1)nc(C(C)(C)C)n2CC1CCOCC1 | 1.1 | 0.786 | 5.4 | 60 | 55 | 55 | 0.538 | 0.437 | 1.7 | 6.2 | 0.469 | 0.203 | 91 | 320 | 0.48 | 0.321 | 0.13 | 28 |
| Cc1nc2cc(-c3cc(F)cc(C#N)c3)ccc2s1 | 3.3 | 0.000864 | 20 | 25 | 570 | 31 | 0.00394 | 0.00815 | 2.6 | 73 | 0.00655 | 0.0047 | 66 | 480 | 0.6 | 0.0101 | 1.5 | 34 |

Next, values leading:

| Kp uu [1] | fraction unbound at 6 h, 2 µM [2] | Kp uu [3] | Ct [4] [ng/mL] | Ct [5] [ng/mL] | Cp [6] [ng/mL] | fraction unbound at 6 h, 2 µM [7] | fraction unbound at 6 h, 2 µM [8] | Kp uu [9] | Ct [10] [ng/mL] | fraction unbound at 6 h, 2 µM [11] | fraction unbound at 6 h, 2 µM [12] | Ct [13] [ng/mL] | Ct [14] [ng/mL] | Kp uu [15] | fraction unbound at 6 h, 2 µM [16] | Kp uu [17] | Papp [18] [×10⁻⁶ cm/s] | SMILES |
| --- | --- | --- | --- | --- | --- | --- | --- | --- | --- | --- | --- | --- | --- | --- | --- | --- | --- | --- |
| 0.75 | 0.672 | 4.5 | 33 | 5.4 | 79 | 0.0945 | 0.191 | 0.26 | 0.69 | 0.19 | 0.132 | 77 | 350 | 0.29 | 0.15 | 0.0032 | 9.8 | COc1ccc2ncc(F)c([C@@H](O)CC[C@@H]3CCN(CCSc4cccs4)C[C@@H]3C(=O)O)c2c1 |
| 5.3 | 0.736 | 5 | 7.4 | 5.4 | 55 | 1 | 0.287 | 0.21 | 6.8 | 0.692 | 0.595 | 210 | 630 | 0.1 | 1 | 0.16 | 0.51 | Cn1ncc(-c2ccc(C(=O)N(c3ncccc3Cl)[C@@H]3CCCNC3)cc2)c1C(=O)O |
| 4 | 0.709 | 3.9 | 100 | 29 | 50 | 0.886 | 0.439 | 0.95 | 68 | 0.511 | 0.304 | 140 | 210 | 1.3 | 0.746 | 2.5 | 27 | O=C(NC1CC1)c1nc2cccnn2c1-c1ccc2ncnn2c1 |
| 4.2 | 0.165 | 0.037 | 20 | 0.77 | 88 | 0.00874 | 0.00824 | 0.024 | 0.38 | 0.00353 | 0.017 | 80 | 1.5 | 1.1 | 0.0159 | 0.0018 | 17 | O=C(O)[C@@H]1CCN(C(=O)n2cnc(-c3ccc(-c4cnc(N5CCOCC5)nc4)cc3)n2)[C@@H](c2ccccc2)C1 |
| 4.7 | 0.0208 | 5.4 | 40 | 880 | 79 | 0.079 | 0.12 | 3.9 | 200 | 0.0667 | 0.0833 | 230 | 230 | 0.68 | 0.1 | 3.2 | 35 | O=C(NC(c1ccccc1)c1ccccc1)C1CC1 |
| 1.8 | 0.126 | 7.1 | 17 | 8 | 120 | 0.0111 | 0.0134 | 2.5 | 0.38 | 0.00353 | 0.021 | 56 | 220 | 0.85 | 0.0129 | 0.0018 | 4.4 | Cc1ccc(CC(C)(C)NC[C@@H](O)CO[C@H](C)c2ccccc2-c2ccc(C(=O)O)c(C)c2)cc1F |
